Test results from US20230391824A1, “RATIONALE, DESIGN, SYNTHESIS AND VALIDATION OF A SMALL MOLECULE ANTICANCER AGENT” (priority 2021, published 2023).
Read-outs that look alike come from different tables or passages of the source.

What was measured:
[1] = target: T1, Lin28A protein (Homo sapiens, UniProt Q9H9Z2); experiment: Western blotting of Lin28A protein in cancer cell models; assay type: cell-based
T1 construct: in a panel of endogenously LIN28 expressing cancer cell models; endogenous in cells; host or cells: T47D, YP-MEL, BT-12, BT-37, NT-2 (NTERA)
T1 sequence (Q9H9Z2 1-209): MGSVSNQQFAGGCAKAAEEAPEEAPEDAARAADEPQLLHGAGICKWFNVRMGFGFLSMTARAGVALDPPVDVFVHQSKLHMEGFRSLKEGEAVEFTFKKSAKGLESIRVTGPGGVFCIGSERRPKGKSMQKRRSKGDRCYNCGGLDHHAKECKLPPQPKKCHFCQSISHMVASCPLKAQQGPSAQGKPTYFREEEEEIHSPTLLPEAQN
Procedure: FIG. 5: Compound of formula (I) mixture, containing the two isomers (P1+P2) causes significant reduction in Lin28A protein from 5 μM onwards, in a panel of endogenously LIN28 expressing cancer cell models. […] LIN28A and LIN28B expression profile in pediatric CNS cancer cell lines, 96-hr post-treatment with Compound of formula (I). SDS-PAGE on 10% polyacrylamide gel of total cell lysates from untreated cells harvested at 80-90% confluency. Samples loaded with volumes for 20 μg protein. LIN28A and LIN28B proteins were detected using the anti-LIN28A antibody (#8706; Cell Signaling Technology) and anti-LIN28B antibody (#11965; Cell Signalling Technology) at 1:2000 dilutions. T47D: adult breast cancer (LIN28A expressing); YPMEL: malignant melanoma derived from Neurocutaneous Melanosis (NCM) (Lin28A and Lin28B expressing); BT-12: pediatric atypical-teratoid rhabdoid tumor (AT/RT).
FIG. 7A-C: To determine the differences in the biological activity of the two isomers (P1+P2) of Compound of formula (I), we tested the effects of purified and separated P1 and P2 isomers on the protein expression of Lin28A and Lin28B. (A) YP-MEL (NCM). (B) BT-37 (AT/RT). (C) NT-2 (NTERA) (Testicular cancer).
The proteins were extracted from the same samples as the RNA using the RIPA lysis buffer. The protein extracts (20 μg) were run on 10% SDS-PAGE and transferred on a nitrocellulose blotting membrane 0.22 μm (GE Healthcare) using the Trans-Blot® SD semi-dry transfer devise (Biorad). The proteins were detected using the anti-Lin28A antibody (#8706; Cell Signaling Technology), anti-Lin28B antibody (#11965, Cell Signaling Technology) the anti-beta-actin antibody at respectively 1:2000, 1:2000 and 1:5000 dilutions.

[2] = Solubility; assay type: physicochemical
[3] = test system: NT-2 testicular tumor; experiment: NT-2 testicular tumor xenograft in SCID mice; assay type: in vivo; settings: male SCID mice; for growth of NT-2 tumors: every 2 days
Procedure: FIG. 14A-C: Male SCID NT-2 testicular tumor bearing mice treated with 4 mg/kg Compound of formula (I) (P1 version) via oral route of administration (P.O). […] Tumor areas were measured with a Vernier caliper (prior to each treatment cycle). Animals were euthanized when the control (0.1% DMSO:PBS) treated mice reached the defined endpoint of 225 mm^2. Data representative of at least 5 independent experiments. […] (B) is a graph depicting percentage change of tumour volume versus days after the first treatment. (C) is a graph depicting percentage survival versus days after the first treatment.
FIG. 15A-D: Male SCID NT-2 testicular tumor bearing mice treated with 4 mg/kg Compound of formula (I) (P1 version) via intraperitoneal route of administration (I.P). […] Tumor areas were measured with a Vernier caliper (prior to each treatment cycle). Animals were euthanized when the control (0.1% DMSO:PBS) treated mice reached the defined endpoint of 225 mm^2. Data representative of at least 5 independent experiments. […] (B) is a graph depicting percentage of tumour size versus days after the first treatment. (C) is a graph depicting percentage survival versus days after the first treatment. (D) is a photograph showing excised tumours.
FIG. 16A&B: Male SCID NT-2 testicular tumor bearing mice treated with 4 mg/kg Compound of formula (I) (P1 isomer) via intravenous route of administration (I.V). […] Tumor areas were measured with a Vernier caliper (prior to each treatment cycle). Animals were euthanized when the control (0.1% DMSO:PBS) treated mice reached the defined endpoint of 225 mm^2. Data representative of at least 5 independent experiments. (A) is a photograph showing excised tumours. (B) is graph depicting percentage of tumor size versus number of treatments.
All animal procedures were carried out in accordance with the guidelines of the Canadian Council on Animal Care and the NIH guidelines on the care and use of laboratory animals. All protocols were reviewed and approved by the Animal Care Committee of the University of Calgary (Protocol approval number: AC21-0147). Six- to eight-week-old female or male CB17 severe combined immunodeficiency (SCID) mice (Charles River Laboratories, Saint-Constant, QC, Canada) were subcutaneously injected in the right flank with 3×10^6 YP-MEL or NT-2 cells suspended in 0.1 mL sterile PBS. After tumor injection, animals with detectable tumor growth of at least 50 mm^2 were randomized into groups. The groups were treated with either 0.1% DMSO:PBS vehicle or 4 mg/kg of Compound of formula (I) dissolved in the vehicle, intraperitoneally (I.P), orally (P.O) or intravenously (I.V). Animals and respective cages were monitored for food and bedding supplies daily; doses were injected every 2 days and tumor areas were measured with a Vernier caliper (prior to each treatment cycle). When vehicle treated tumors reached the defined endpoint of 225 mm^2, every mouse in the group were euthanized. Tumors were excised and immediately imaged and processed for western blotting or fixed in paraformaldehyde for toxicology evaluation. (A)

SMILES: CC[C@H](C)[C@H](NC(=O)[C@H](Cc1ncc[nH]1)NC(=O)c1cccc(C(N)=O)c1)C(=O)Nc1ccc(O)c(-c2nc3ccccc3s2)c1 [Compound P1]
- selectivity relative to the crude mixture containing P1+P2 ([1]; Lin28A inhibition, FIG. 7 versus FIG. 5): 5 times
- concentration from which Lin28A is selectively inhibited ([1]; YP-MEL, BT-37, NT-2 cells): ≥ 1 µM
- solubility ([2]; DMSO, organic solvent or mixture, read-out: solubility in DMSO): 100 mg/mL
- solubility ([2]; organic solvent or mixture, DMSO, freeze dried, RP-HPLC purified P1, read-out: solubility in DMSO): 10 mM
- solubility ([2]; water/PBS/culture medium, aqueous buffer, read-out: solubility in water/PBS/culture medium): 0.05 mM
- treated animals that survived tumor-free for 120 days ([3]; 4 mg/kg I.P): at least 50%
- growth of NT-2 tumors ([3]; 4 mg/kg I.P): significantly reduced the growth
- growth of NT-2 tumors ([3]; 4 mg/kg I.V): significantly reduced the growth
- tumor shrinkage ([3]; 4 mg/kg I.V, with only 4 doses): in some cases showed complete shrinkage
- growth of NT-2 tumors ([3]; 4 mg/kg P.O): significantly reduced the growth
